From ChEMBL document CHEMBL1201862, “PubChem BioAssay data set” (2004)
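All cell lines were grown in 96-well plates and treated with compound for 48 hours. The concentration for 50% growth inhibition is given as GI50.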 Calls of active or inactive are those of the source. No stated cut-off is given here; in the data, active = GI50 up to about 1.1 µM and inactive = higher.

How the values were obtained:
Assay in all cases: DTP human tumour cell line panel, 48 h
ACHN = test system: ACHN
SNB-19 = test system: SNB-19
OVCAR-5 = test system: OVCAR-5
OVCAR-8 = test system: OVCAR-8
OVCAR-3 = test system: OVCAR-3
SF-268 = test system: SF-268
EKVX = test system: EKVX
DLD-1 = test system: DLD-1
CAKI-1 = test system: CAKI-1
SK-MEL-2 = test system: SK-MEL-2
UACC-257 = test system: UACC-257
A549 = test system: A549
HL-60 = test system: HL-60
SW-620 = test system: SW-620
CCRF-CEM = test system: CCRF-CEM
UO-31 = test system: UO-31
SR = test system: SR
Hs-578T = test system: Hs-578T
MDA-MB-435 = test system: MDA-MB-435
NCI/ADR-RES = test system: NCI/ADR-RES

| Compound | GI50 (ACHN) | GI50 (SNB-19) | GI50 (OVCAR-5) | GI50 (OVCAR-8) | GI50 (OVCAR-3) | GI50 (SF-268) | GI50 (EKVX) | GI50 (DLD-1) | GI50 (CAKI-1) | GI50 (SK-MEL-2) | GI50 (UACC-257) | GI50 (A549) | GI50 (HL-60) | GI50 (SW-620) | GI50 (CCRF-CEM) | GI50 (UO-31) | GI50 (SR) | GI50 (Hs-578T) | GI50 (MDA-MB-435) | GI50 (NCI/ADR-RES) |
| --- | --- | --- | --- | --- | --- | --- | --- | --- | --- | --- | --- | --- | --- | --- | --- | --- | --- | --- | --- | --- |
| S=c1c2ccccc2c(=S)n2n1CC=CC2 | > 100 µM (inactive) | > 100 µM (inactive) | > 100 µM (inactive) | > 100 µM (inactive) | > 100 µM (inactive) | > 100 µM (inactive) | > 100 µM (inactive) | > 100 µM (inactive) | > 100 µM (inactive) | > 100 µM (inactive) | > 100 µM (inactive) | > 100 µM (inactive) | > 100 µM (inactive) | > 100 µM (inactive) | > 100 µM (inactive) | > 100 µM (inactive) | – | – | – | – |
| CC(NS(=O)(=O)c1ccc(Cl)cc1)C(=O)O (stereo unspecified) | > 100 µM (inactive) | > 100 µM (inactive) | > 100 µM (inactive) | > 100 µM (inactive) | > 100 µM (inactive) | > 100 µM (inactive) | > 100 µM (inactive) | > 100 µM (inactive) | > 100 µM (inactive) | > 100 µM (inactive) | > 100 µM (inactive) | > 100 µM (inactive) | > 100 µM (inactive) | > 100 µM (inactive) | > 100 µM (inactive) | > 100 µM (inactive) | – | – | – | – |
| Cc1cc(=O)oc2c1cc(OCC(=O)OCCN1CCCCC1)c1occ(C)c12 | > 100 µM (inactive) | > 100 µM (inactive) | > 100 µM (inactive) | > 100 µM (inactive) | > 100 µM (inactive) | – | > 100 µM (inactive) | > 100 µM (inactive) | > 100 µM (inactive) | > 100 µM (inactive) | > 100 µM (inactive) | > 100 µM (inactive) | > 100 µM (inactive) | > 100 µM (inactive) | > 100 µM (inactive) | > 100 µM (inactive) | – | – | – | – |
| CCOC(=O)C(C)(C)Oc1ccc2c(C)c(-c3ccc(Cl)cc3)c(=O)oc2c1 | 98.6 µM (inactive) | 51.1 µM (inactive) | – | > 100 µM (inactive) | 85.1 µM (inactive) | > 100 µM (inactive) | 70.3 µM (inactive) | 47.6 µM (inactive) | – | > 100 µM (inactive) | 43.8 µM (inactive) | 37.6 µM (inactive) | 18.2 µM (inactive) | > 100 µM (inactive) | 14.5 µM (inactive) | 55.5 µM (inactive) | 27.7 µM (inactive) | – | – | – |
| O=C(Nc1ccccc1C(=O)Nc1nccs1)c1ccccc1 | 14.3 µM (inactive) | 31.9 µM (inactive) | > 100 µM (inactive) | 54.5 µM (inactive) | 3.98 µM (inactive) | 14.6 µM (inactive) | 36.6 µM (inactive) | – | 21.3 µM (inactive) | 5.22 µM (inactive) | 31 µM (inactive) | 12.4 µM (inactive) | 3.82 µM (inactive) | 25.6 µM (inactive) | 4.98 µM (inactive) | 7.89 µM (inactive) | 7.31 µM (inactive) | 23.9 µM (inactive) | 33.7 µM (inactive) | 6.17 µM (inactive) |
| Cc1cc(C)c2c(c1C)CN1CN2Cc2c(C)c(C)cc(C)c21 | > 100 µM (inactive) | < 0.01 µM (active) | > 100 µM (inactive) | > 100 µM (inactive) | 18.9 µM (inactive) | > 100 µM (inactive) | > 100 µM (inactive) | 20.8 µM (inactive) | > 100 µM (inactive) | – | – | 80.9 µM (inactive) | 11.4 µM (inactive) | > 100 µM (inactive) | > 100 µM (inactive) | > 100 µM (inactive) | > 100 µM (inactive) | – | – | – |
| COC(=O)Nc1nc2ccccc2[nH]1 [CARBENDAZIM] | > 56.1 µM (inactive) | 10.1 µM (inactive) | 49.4 µM (inactive) | 10.8 µM (inactive) | 4 µM (inactive) | > 51.3 µM (inactive) | > 52.7 µM (inactive) | – | 11.4 µM (inactive) | 17.8 µM (inactive) | > 61 µM (inactive) | 6.97 µM (inactive) | 4.26 µM (inactive) | 3.57 µM (inactive) | 21.2 µM (inactive) | 20.7 µM (inactive) | 7.33 µM (inactive) | 12.9 µM (inactive) | 2.34 µM (inactive) | 3.13 µM (inactive) |
| CSc1ccc2c(cc1=O)[C@@H](NC(=O)c1cc(O)c(O)c(O)c1)CCc1cc(O)c(O)c(O)c1-2 | 34.1 µM (inactive) | 81.3 µM (inactive) | 15 µM (inactive) | 24 µM (inactive) | 31 µM (inactive) | 37.4 µM (inactive) | 23.2 µM (inactive) | 21.2 µM (inactive) | – | – | 18 µM (inactive) | 27.7 µM (inactive) | 16.8 µM (inactive) | 17.1 µM (inactive) | 3.33 µM (inactive) | 25.9 µM (inactive) | 18.6 µM (inactive) | – | – | – |
| O=[N+]([O-])/C=C\c1c[nH]c2ccc(OCc3ccccc3)cc12 | 2.13 µM (inactive) | 4.89 µM (inactive) | 11.1 µM (inactive) | 4.27 µM (inactive) | 10.4 µM (inactive) | 4.37 µM (inactive) | 13.4 µM (inactive) | – | 20.6 µM (inactive) | 11.5 µM (inactive) | 1.64 µM (inactive) | 4.31 µM (inactive) | 2.62 µM (inactive) | 2.51 µM (inactive) | 4.26 µM (inactive) | 3.58 µM (inactive) | 2.03 µM (inactive) | 3.57 µM (inactive) | 2.16 µM (inactive) | 19.3 µM (inactive) |
| NC(=O)COc1ccc(Br)cc1Br | > 100 µM (inactive) | > 100 µM (inactive) | > 100 µM (inactive) | > 100 µM (inactive) | > 100 µM (inactive) | > 100 µM (inactive) | 29.2 µM (inactive) | > 100 µM (inactive) | > 100 µM (inactive) | > 100 µM (inactive) | > 100 µM (inactive) | > 100 µM (inactive) | > 100 µM (inactive) | > 100 µM (inactive) | – | > 100 µM (inactive) | > 100 µM (inactive) | – | – | – |
| CCCC(=O)Nc1ncnc2c1ncn2C1OC2COP(=O)(O)OC2C1OC(=O)CCC (stereo unspecified) | > 100 µM (inactive) | > 100 µM (inactive) | > 100 µM (inactive) | > 100 µM (inactive) | > 100 µM (inactive) | > 100 µM (inactive) | > 100 µM (inactive) | – | > 100 µM (inactive) | > 100 µM (inactive) | > 100 µM (inactive) | > 100 µM (inactive) | 180 µM (inactive) | > 100 µM (inactive) | 266 µM (inactive) | 312 µM (inactive) | 493 µM (inactive) | > 1000 µM (inactive) | > 100 µM (inactive) | > 100 µM (inactive) |
| CC(/C=C/C(=O)NO)=C\C(C)C(=O)c1ccc(N(C)C)cc1 (stereo unspecified) | 0.0231 µM (active) | 0.0281 µM (active) | 0.114 µM (active) | < 0.01 µM (active) | 0.0119 µM (active) | 0.0309 µM (active) | 0.261 µM (active) | – | 0.029 µM (active) | 0.217 µM (active) | 0.0614 µM (active) | < 0.0122 µM (active) | 0.207 µM (active) | < 0.01 µM (active) | < 0.01 µM (active) | 0.0498 µM (active) | < 0.0112 µM (active) | < 0.01 µM (active) | 0.0159 µM (active) | < 0.01 µM (active) |
| Oc1nc2nc3ccccc3nc2nc1O | > 100 µM (inactive) | > 100 µM (inactive) | > 100 µM (inactive) | > 100 µM (inactive) | > 100 µM (inactive) | > 100 µM (inactive) | > 100 µM (inactive) | – | > 100 µM (inactive) | > 100 µM (inactive) | > 100 µM (inactive) | > 100 µM (inactive) | > 100 µM (inactive) | > 100 µM (inactive) | > 100 µM (inactive) | > 100 µM (inactive) | > 100 µM (inactive) | > 100 µM (inactive) | > 100 µM (inactive) | > 100 µM (inactive) |
| O=S(=O)(N/N=C\c1c2ccccc2[n+]([O-])c2ccccc12)c1ccc(Cl)cc1 | 35.6 µM (inactive) | 53.3 µM (inactive) | > 100 µM (inactive) | > 100 µM (inactive) | > 100 µM (inactive) | > 100 µM (inactive) | > 100 µM (inactive) | > 100 µM (inactive) | > 100 µM (inactive) | 46.1 µM (inactive) | > 100 µM (inactive) | > 100 µM (inactive) | > 100 µM (inactive) | > 100 µM (inactive) | > 100 µM (inactive) | > 100 µM (inactive) | – | – | – | – |
| CN(C)C(=O)Oc1ccc(C(=S)Nc2ccccc2)cc1 | > 100 µM (inactive) | > 100 µM (inactive) | > 100 µM (inactive) | 25.6 µM (inactive) | 86.5 µM (inactive) | > 100 µM (inactive) | 45.9 µM (inactive) | – | > 100 µM (inactive) | > 100 µM (inactive) | 34.8 µM (inactive) | 66.2 µM (inactive) | 21.6 µM (inactive) | > 100 µM (inactive) | 26.6 µM (inactive) | 75.3 µM (inactive) | 46.8 µM (inactive) | > 100 µM (inactive) | 42.3 µM (inactive) | 26.4 µM (inactive) |
| Cc1cc(-c2nc3ccccc3s2)ccc1N | 45.4 µM (inactive) | > 70.1 µM (inactive) | 19.5 µM (inactive) | 61.5 µM (inactive) | 35.9 µM (inactive) | 52 µM (inactive) | 26.6 µM (inactive) | – | 43.7 µM (inactive) | 56.4 µM (inactive) | 81.5 µM (inactive) | 32.8 µM (inactive) | 15.7 µM (inactive) | > 72.4 µM (inactive) | 9.44 µM (inactive) | 6.92 µM (inactive) | 25.6 µM (inactive) | > 100 µM (inactive) | 56.9 µM (inactive) | 57.4 µM (inactive) |
